Measured values reported in patent US4740233A, “Substituted 1,2,4-triazolo[1,5-a]-pyrimidine-2-sulfonamides and compositions and methods of controlling undesired vegetation and suppressing the nitrification of ammonium nitrogen in soil” (The Dow Chemical Company, priority 1986, dated 1988).

How the values were obtained:
cotton = assay: Postemergent control of plant species; format: in vivo, Gossypium spp.; details: Gossypium hirsutum, post-emergence, 336 h, read-out: percent postemergent control
Method in brief: (§1)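 Each compound is dissolved in acetone, mixed with an equal volume of 0.1% surfactant water, and sprayed on plants grown to 2-4 leaves in nutrient soil. Treated and untreated beds sit under identical greenhouse temperature and light for roughly two weeks before growth reduction is rated.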

rape = assay: Postemergent control of plant species; format: in vivo, Brassica napus; details: Brassica napus, post-emergence, 336 h, read-out: percent postemergent control
Method in brief: as §1

soybean = assay: Postemergent control of plant species; format: in vivo, Glycine max.; details: Glycine max, post-emergence, 336 h, read-out: percent postemergent control
Method in brief: as §1

sugar beet = assay: Postemergent control of plant species; format: in vivo, Beta saccharifera; details: Beta vulgaris, post-emergence, 336 h, read-out: percent postemergent control
Method in brief: as §1

cocklebur = assay: Postemergent control of plant species; format: in vivo, Xanthium spp.; details: Xanthium strumarium, post-emergence, 336 h, read-out: percent postemergent control
Method in brief: as §1

jimsonweed = assay: Postemergent control of plant species; format: in vivo, Datura stramonium; details: Datura stramonium, post-emergence, 336 h, read-out: percent postemergent control
Method in brief: as §1

annual morning glory = assay: Postemergent control of plant species; format: in vivo, Ipomoea spp.; details: Ipomoea, post-emergence, 336 h, read-out: percent postemergent control
Method in brief: as §1

pigweed = assay: Postemergent control of plant species; format: in vivo, Amaranthus spp.; details: Amaranthus retroflexus, post-emergence, 336 h, read-out: percent postemergent control
Method in brief: as §1

velvetleaf = assay: Postemergent control of plant species; format: in vivo, Abutilon theophrasti; details: Abutilon theophrasti, post-emergence, 336 h, read-out: percent postemergent control
Method in brief: as §1

corn = assay: Postemergent control of plant species; format: in vivo, Zea mays; details: Zea mays, post-emergence, 336 h, read-out: percent postemergent control
Method in brief: as §1

sorghum = assay: Postemergent control of plant species; format: in vivo, Sorghum vulgare; details: Sorghum, post-emergence, 336 h, read-out: percent postemergent control
Method in brief: as §1

wheat = assay: Postemergent control of plant species; format: in vivo, Triticum aestivum; details: Triticum aestivum, post-emergence, 336 h, read-out: percent postemergent control
Method in brief: as §1

barnyardgrass [1] = assay: Postemergent control of plant species; format: in vivo, Echinochloa crusgalli; details: Echinochloa crus-galli, post-emergence, 336 h, read-out: percent postemergent control
Method in brief: as §1

crabgrass = assay: Postemergent control of plant species; format: in vivo, Digitaria spp.; details: Digitaria sanguinalis, post-emergence, 336 h, read-out: percent postemergent control
Method in brief: as §1

yellow foxtail = assay: Postemergent control of plant species; format: in vivo, Setaria lutescens; details: Setaria, post-emergence, 336 h, read-out: percent postemergent control
Method in brief: as §1

johnson grass = assay: Postemergent control of plant species; format: in vivo, Sorghum halepense; details: Sorghum halepense, post-emergence, 336 h, read-out: percent postemergent control
Method in brief: as §1

wild oats = assay: Postemergent control of plant species; format: in vivo, Avena fatua; details: Avena fatua, post-emergence, 336 h, read-out: percent postemergent control
Method in brief: as §1

yellow nutsedge [2] = assay: Postemergent control of plant species; format: in vivo, Cyperus esculentus; details: Cyperus, post-emergence, 336 h, read-out: percent postemergent control
Method in brief: as §1

rice [3] = assay: Control of aquatic plant species (paddy water); format: in vivo, Oryza sativa; details: Oryza sativa, 216 h, nine days, read-out: Percent control; for pest or weed control at 1000 g/ha: 1.0 Kg/Ha
Description: (§2) In testing for such utility, the plant species to be tested were transplanted into 16 oz. containers into about 2 inches of soil when they were in the 1-2 inch stage and then flooded to a depth of about 1 inch. An acetone concentrate of the chemical to be tested was then injected into the paddy water, the volume injected being varied as desired to provide the desired concentration. Percent control was evaluated nine days after application.

barnyardgrass [4] = assay: Control of aquatic plant species (paddy water); format: in vivo, Echinochloa crusgalli; details: Echinochloa crus-galli, 216 h, nine days, read-out: Percent control; for pest or weed control at 1000 g/ha: 1.0 Kg/Ha
Description: as §2

sprangletop = assay: Control of aquatic plant species (paddy water); format: in vivo, Leptochloa filiformis; details: Leptochloa filiformis, 216 h, nine days, read-out: Percent control; for pest or weed control at 1000 g/ha: 1.0 Kg/Ha
Description: as §2

yellow nutsedge [5] = assay: Control of aquatic plant species (paddy water); format: in vivo, Cyperus esculentus; details: Cyperus, 216 h, nine days, read-out: Percent control; for pest or weed control at 1000 g/ha: 1.0 Kg/Ha
Description: as §2

[6] = tested on: nitrification of ammonium nitrogen; assay: Suppression of nitrification of ammonium nitrogen in soil; details: 27° C.
Method in brief: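 Soil (20 g) moistened to its 1/3 bar tension value, mixed with test chemical and incubated sealed for two weeks at 27° C. Nitrate extracted with ammonium sulfate solution and measured by nitrate-specific ion electrode; value given as % NH4-N remaining.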

rice [7] = assay: Postemergent control of plant species; format: in vivo, Oryza sativa; details: Oryza sativa, post-emergence, 336 h, read-out: percent postemergent control
Method in brief: as §1

Row | Structure (SMILES) | plant injury at 500 ppm (rape) [%] | plant injury at 500 ppm (soybean) [%] | plant injury at 500 ppm (sugar beet) [%] | pest or weed control at 500 ppm (cocklebur) [%] | pest or weed control at 500 ppm (jimsonweed) [%] | pest or weed control at 500 ppm (annual morning glory) [%] | pest or weed control at 500 ppm (velvetleaf) [%] | plant injury at 500 ppm (corn) [%] | plant injury at 500 ppm (sorghum) [%] | plant injury at 500 ppm (wheat) [%] | pest or weed control at 500 ppm (barnyardgrass [1]) [%] | pest or weed control at 500 ppm (crabgrass) [%] | pest or weed control at 500 ppm (yellow foxtail) [%] | pest or weed control at 500 ppm (johnson grass) [%] | pest or weed control at 500 ppm (wild oats) [%] | pest or weed control at 500 ppm (yellow nutsedge [2]) [%] | pest or weed control at 1000 g/ha (rice [3]) [%] | pest or weed control at 1000 g/ha (barnyardgrass [4]) [%] | pest or weed control at 1000 g/ha (sprangletop) [%] | pest or weed control at 1000 g/ha (yellow nutsedge [5]) [%] | also measured
1 | COC(=O)c1ccccc1NS(=O)(=O)c1nc2nc(C)cc(C)n2n1 [Compound 10, methyl N-(5,7-dimethyl-1,2,4-triazolo[1,5-a]pyrimidine-2-sulfonyl)anthranilate] | 10 | 20 | 60 | 15 | 0 | 0 | 0 | 0 | 0 | 0 | 0 | 0 | 0 | 0 | 0 | 0 | 93 | 90 | 50 | 90 | plant injury at 500 ppm (cotton): 0%; pest or weed control at 500 ppm (pigweed): 20%; % NH4-N Remaining After 2 Weeks Incubation ([6]; 0.01 ppm): 0%; % NH4-N Remaining After 2 Weeks Incubation ([6]; 0.1 ppm): 0%; % NH4-N Remaining After 2 Weeks Incubation ([6]; 1 ppm): 27%; % NH4-N Remaining After 2 Weeks Incubation ([6]; 10 ppm): 70%
2 | Cc1ccnc2nc(S(=O)(=O)Nc3c(Cl)cccc3Cl)nn12 [Compound 180] | 100 | 100 | 100 | 100 | 100 | 90 | 100 | 0 | 50 | 0 | 10 | 90 | 75 | 20 | 0 | 90 | 80 | 97 | 97 | 97 | plant injury at 500 ppm (cotton): 100%; plant injury at 500 ppm (rice [7]): 10%; pest or weed control at 250 g/ha (rice [3]; 0.25 Kg/Ha): 0%; pest or weed control at 250 g/ha (barnyardgrass [4]; 0.25 Kg/Ha): 90%; pest or weed control at 250 g/ha (sprangletop; 0.25 Kg/Ha): 0%; pest or weed control at 250 g/ha (yellow nutsedge [5]; 0.25 Kg/Ha): 90%
3 | Cc1cc(C)n2nc(S(=O)(=O)Nc3ccccc3Cl)nc2n1 [Compound 7, 5,7-dimethyl-N-(2-chlorophenyl)-1,2,4-triazolo[1,5-a]pyrimidine-2-sulfonamide] | 90 | 55 | 100 | 100 | 20 | 90 | 65 | 0 | 65 | 0 | 35 | 0 | 25 | 50 | 0 | 65 | 97 | 99 | 93 | 90 | pest or weed control at 500 ppm (pigweed): 60%; plant injury at 500 ppm (rice [7]): 15%; % NH4-N Remaining After 2 Weeks Incubation ([6]; 0.06 ppm): 17%; % NH4-N Remaining After 2 Weeks Incubation ([6]; 0.125 ppm): 30%; % NH4-N Remaining After 2 Weeks Incubation ([6]; 0.25 ppm): 62%; % NH4-N Remaining After 2 Weeks Incubation ([6]; 0.5 ppm): 73%; % NH4-N Remaining After 2 Weeks Incubation ([6]; 1 ppm): 80%
